# Source: patent publication US8629166B2, “5-cycloalkyl- or 5-heterocyclyl-nicotinamides” (Hoffmann-La Roche Inc., priority 2011, dated 2014)
# Experiments:
# human CB2 receptor = target: T1, human CB2 receptor (Homo sapiens, UniProt P34972); assay: CB2 receptor affinity ([3H]-CP-55,940 displacement, HEK cell membranes); assay type: binding; conditions: displacement of [3H]-CP-55,940 at 10 μM
# T1 construct: expressed in transfected cells; host or cells: human embryonic kidney (HEK) cells, Semliki Forest Virus system, membrane preparation
# Protocol: (§1) CB1 and CB2 Receptor Affinity
# The affinity of the compounds of the invention for cannabinoid CB2 receptors was determined using membrane preparations of human embryonic kidney (HEK) cells in which the human CB2 receptor is transiently transfected using a Semliki Forest Virus system in conjunction with [^3H]-CP-55,940 as radioligand. After incubation of freshly prepared cell membrane preparation with the [^3H]-ligand, with or without addition of compounds of the invention, separation of bound and free ligand was performed by filtration over glass fiber filters. Radioactivity on the filter was measured by scintillation counting.
# (§2) The ability of the compounds to displace the radioligand [^3H]-CP-55,940 was measured at a concentration of 10 μM and values provided as [% inhibition @ 10 μM] both for the CB1 and CB2 receptor assay, The lower % inhibition is, the lower the likelihood of side effects based on CB1 or CB2 receptor inhibition is.
# ABCA1 protein = assay: Detection of upregulation of ABCA1 protein in cells (ApoA-I binding, high content image analysis); assay type: cell-based; conditions: THP-1 macrophage cells; for EC50: ABCA1 protein increasing efficacy; for % increase of ABCA1 at 3 μM: compound at 3 μM, 24 hrs
# Protocol: Detection of Upregulation of ABCA1 Protein in Cells
# The ability of compounds of the invention to increase the level of ABCA1 protein is determined in replicate cultures of THP-1 macrophage cells in 96-well microplates. Cells are plated at an initial density of 100,000 cells/well in 100 μl medium and differentiated to adherent macrophages with the addition of PMA (100 nM) for 68 hrs in 10% fetal bovine serum, 3 μl/L of b-mercaptoethanol, RPMI-1640 medium. Then, cells are incubated with RPMI-1640 medium containing 1% FCS, 25 μg/ml acetylated LDL, for 24 hours at 37° C. Following incubation with acetylated LDL, cells are washed twice with 50 μl PBS and incubated with 100 μl of RPMI-1640 medium containing the compound of interest solubilized in DMSO for an additional 24 hrs. The final DMSO concentration in presence of cells is maintained at 0.5%. ApoA-I binding assay using High Content Image Analysis is initiated by replacing with fresh medium, RPMI without Phenol Red, 0.2% BSA containing AlexaFluor®647 labeled ApoA-I for 2 h/37° C./5% CO2. Then, cells are fixed with 4% Formaldehyde in PBS (15 min, RT). Following Nuclei are stained with Hoechst solution (3 μM PBS) and Cytoplasm with Cell Mask Blue (2 μg/ml PBS), 15 min, RT. Finally the stained cells are fixed with a second round of formaldehyde treatment. Fixed stained cells are washed and kept in PBS at 4° C. and can be read immediately until one month after preparation.
# The Alexa Fluor 647-labeled Apolipoprotein A-I (20 nM) was prepared as follows: Human recombinant Apolipoprotein A-I (ApoA-I) was exchanged to a buffer of 0.02 M NaHCO3 at pH 8.2 on an NAP desalting column (GE Healthcare) and brought to a concentration to 40 μM (1.13 mg/ml) by adjustment with the same buffer. The ApoA-I was fluorescently labeled by incubation with Alexa Fluor carboxylic acid succimidyl ester (Alexa Fluor 647, Invitrogen A-20006) at a 2:1 molar ratio (Alexa to ApoA-I) for 1 h under shaking at RT. The remaining unconjugated label was removed by buffer exchange to 0.02M NaHCO3 at pH 8.2.
# Imaging and data collection were performed on an OPERA confocal microplate imaging reader using a 20× water immersion objective and UV360 or 405 laser to identify the cell nuclei and a 635 laser to identify the fluorescent ApoA-I. Eight fields of view are captured per well. Image capture and analysis was performed with the Acapella software. Background fluorescence detected in control wells without ApoA-I was subtracted.
# Using XLfit3 program (ID Business Solutions Ltd. UK), the model 205 for Dose Response One Site is used to calculate the EC50 values. […] Particularly, the compounds of the present invention have EC50 values in a range of 0.1 μM to 3 μm.
# human CB1 receptor = target: T2, human CB1 receptor (Homo sapiens, UniProt P21554); assay: CB1 receptor affinity ([3H]-CP-55,940 displacement, HEK cell membranes); assay type: binding; conditions: displacement of [3H]-CP-55,940 at 10 μM
# T2 construct: expressed in transfected cells; host or cells: human embryonic kidney (HEK) cells, Semliki Forest Virus system, membrane preparation
# Protocol: as §1
# The affinity of the compounds of the invention for cannabinoid receptors was determined using membrane preparations of human embryonic kidney (HEK) cells in which the human CB1 receptor is transiently transfected using a Semliki Forest Virus system in conjunction with [3H]-CP-55,940 as radioligand. After incubation of freshly prepared cell membrane preparation with the [^3H]-ligand, with or without addition of compounds of the invention, separation of bound and free ligand was performed by filtration over glass fiber filters. Radioactivity on the filter was measured by scintillation counting.
# as §2
# T1 sequence (P34972 whole entry): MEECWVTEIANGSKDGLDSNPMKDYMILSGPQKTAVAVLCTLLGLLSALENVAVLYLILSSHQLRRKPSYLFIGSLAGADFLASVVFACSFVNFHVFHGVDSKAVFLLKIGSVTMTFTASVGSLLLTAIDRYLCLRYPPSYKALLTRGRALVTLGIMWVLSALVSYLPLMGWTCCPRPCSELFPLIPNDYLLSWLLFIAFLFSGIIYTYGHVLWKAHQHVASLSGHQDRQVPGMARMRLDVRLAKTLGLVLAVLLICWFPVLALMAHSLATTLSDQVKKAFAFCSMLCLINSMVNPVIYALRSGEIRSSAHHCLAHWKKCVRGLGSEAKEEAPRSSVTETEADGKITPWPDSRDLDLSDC
# T2 sequence (P21554 whole entry): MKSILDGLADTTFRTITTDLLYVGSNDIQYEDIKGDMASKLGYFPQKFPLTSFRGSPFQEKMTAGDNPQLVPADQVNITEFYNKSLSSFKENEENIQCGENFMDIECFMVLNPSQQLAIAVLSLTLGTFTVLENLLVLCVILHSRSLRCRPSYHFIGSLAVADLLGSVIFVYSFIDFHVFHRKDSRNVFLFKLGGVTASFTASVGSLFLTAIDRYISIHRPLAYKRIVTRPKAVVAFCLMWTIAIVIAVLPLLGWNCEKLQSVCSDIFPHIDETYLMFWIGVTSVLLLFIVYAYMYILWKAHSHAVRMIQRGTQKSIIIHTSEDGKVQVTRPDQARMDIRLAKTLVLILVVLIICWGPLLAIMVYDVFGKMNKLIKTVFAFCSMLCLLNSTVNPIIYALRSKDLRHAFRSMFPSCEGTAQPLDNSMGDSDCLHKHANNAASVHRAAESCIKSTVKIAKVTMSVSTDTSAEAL
Compound,CB2 receptor affinity [% inhibition @ 10 μM] (human CB2 receptor) [% inhibition],EC50 (ABCA1 protein) [nM],CB1 receptor affinity [% inhibition @ 10 μM] (human CB1 receptor) [% inhibition],% increase of ABCA1 at 3 μM (ABCA1 protein) [% @ 3 μM]
"O=C(Nc1ccccn1)c1cnc(OCC(F)(F)F)c(C2CCCC2)c1 [Example 10, 5-cyclopentyl-N-pyridin-2-yl-6-(2,2,2-trifluoro-ethoxy)-nicotinamide]",−9,1010,9,
"O=C(Nc1ccncn1)c1cnc(OCC(F)(F)F)c(C2CCCCC2)c1 [Example 21, 5-cyclohexyl-N-pyrimidin-4-yl-6-(2,2,2-trifluoro-ethoxy)-nicotinamide]",−4,,38,>45
"O=C(NCc1ccn(CC2CC2)n1)c1cnc(OCC(F)(F)F)c(C2CCCCC2)c1 [Example 15, 5-cyclohexyl-N-(1-cyclopropylmethyl-1H-pyrazol-3-ylmethyl)-6-(2,2,2-trifluoro-ethoxy)-nicotinamide]",14,,49,>45
"O=C(Nc1cccnn1)c1cnc(OCC(F)(F)F)c(C2CCCC2)c1 [Example 9, 5-cyclopentyl-N-pyridazin-3-yl-6-(2,2,2-trifluoro-ethoxy)-nicotinamide]",9,10000,7,
"N#Cc1ccc(NC(=O)c2cnc(OCC(F)(F)F)c(C3CCCCC3)c2)cc1 [Example 24, N-(4-cyano-phenyl)-5-cyclohexyl-6-(2,2,2-trifluoro-ethoxy)-nicotinamide]",−17,,10,>45
"O=C(NCc1nc(C(F)(F)F)no1)c1cnc(OCC(F)(F)F)c(C2CCCC2)c1 [Example 11, 5-cyclopentyl-6-(2,2,2-trifluoro-ethoxy)-N-(3-trifluoromethyl-[1,2,4]oxadiazol-5-ylmethyl)-nicotinamide]",−3,,29,>45
"O=C(Nc1cccnc1)c1cnc(OCC(F)(F)F)c(C2=CCCCC2)c1 [Example 1, 5-cyclohex-1-enyl-N-pyridin-3-yl-6-(2,2,2-trifluoro-ethoxy)-nicotinamide]",5,510,33,
"O=C(Nc1cnccn1)c1cnc(OCC(F)(F)F)c(C2CCCC2)c1 [Example 28, 5-cyclopentyl-N-pyrazin-2-yl-6-(2,2,2-trifluoro-ethoxy)-nicotinamide]",2,,12,>45
"O=C(NCc1nc(C(F)(F)F)no1)c1cnc(OCC(F)(F)F)c(C2=CCCCC2)c1 [Example 3, 5-cyclohex-1-enyl-6-(2,2,2-trifluoro-ethoxy)-N-(3-trifluoromethyl-[1,2,4]oxadiazol-5-ylmethyl)-nicotinamide]",−1,,42,>45
"O=C(Nc1ccnnc1)c1cnc(OCC(F)(F)F)c(C2CCCCC2)c1 [Example 20, 5-cyclohexyl-N-pyridazin-4-yl-6-(2,2,2-trifluoro-ethoxy)-nicotinamide]",6,,36,>45
"N#Cc1ccc(NC(=O)c2cnc(OCC(F)(F)F)c(C3CCCC3)c2)cc1 [Example 25, N-(4-cyano-phenyl)-5-cyclopentyl-6-(2,2,2-trifluoro-ethoxy)-nicotinamide]",0,,27,>45
